Measurements: patent US12281122B1, “PI3K inhibitors” (Cogent Biosciences, Inc., priority 2023, dated 2025)
pIC50: −log10 of the molar value.

Key:
[1] = system: T47D (PI3Kα-H1047R) cell line; assay: HTRF phospho-AKT(S473) cell assay in T47D cells; assay type: cell-based, human
Summary of the method: (§1)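 Cells plated overnight (T47D in RPMI/10% FBS/0.2 units/mL insulin; SKBR3 in McCoy's 5A/10% FBS), then given 12-point 1:3 compound series (top 5 μM T47D, 10 μM SKBR3; ≤0.5% DMSO) for 2 h at 37° C. SKBR3 stimulated with 70 ng/ml PDGF-BB for final 15 min. Lysate pAKT(S473) by HTRF; IC50 calculated.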

[2] = system: SKBR3 (PI3Kα-Wild Type) cell line; assay: HTRF phospho-AKT(S473) cell assay in SKBR3 cells; assay type: cell-based, human
Summary of the method: as §1

[3] = Homo sapiens; T47D (PI3Kα-H1047R) cells, HTRF phospho-AKT(S473), 2 hours compound incubation
[4] = Homo sapiens, SK-BR-3; SKBR3 (PI3Kα-Wild Type) cells, HTRF phospho-AKT(S473), 2 hours compound incubation, PDGF-BB stimulated
[5] = Homo sapiens; HTRF phospho-AKT(S473), T47D (PI3Kα-H1047R) cells, 2 hours compound incubation
[6] = Homo sapiens, SK-BR-3; HTRF phospho-AKT(S473), SKBR3 (PI3Kα-Wild Type) cells, 2 hours compound incubation, PDGF-BB stimulated

## Cc1cc([C@@H](C)Nc2ccc(Cl)nc2C(=O)NS(C)(=O)=O)c2nc(-c3ccc(N4CCC(O)CC4)nc3)n(C)c(=O)c2c1 [Compound 177, (R)-6-chloro-3-((1-(2-(6-(4-hydroxypiperidin-1-yl)pyridin-3-yl)-3,6-dimethyl-4-oxo-3,4-dihydroquinazolin-8-yl)ethyl)amino)-N-(methylsulfonyl) picolinamide]
[1]; [3]
  pIC50: > 6.60
[2]; [4]
  pIC50: 5.30 to 6.00

## Cc1cc([C@@H](C)Nc2ccc(Cl)nc2C(=O)NS(C)(=O)=O)c2nc(N3CCC4(CCc5c(cnn5C)C4)CC3)n(C)c(=O)c2c1 [Compound 344, (R)-6-chloro-3-((1-(3,6-dimethyl-2-(1-methyl-1,4,6,7-tetrahydrospiro[indazole-5,4′-piperidin]-1′-yl)-4-oxo-3,4-dihydroquinazolin-8-yl)ethyl)amino)-N-(methylsulfonyl) picolinamide]
[1]; [3]
  pIC50: > 6.60
[2]; [4]
  pIC50: ≤ 5.30

## Cc1cc([C@@H](C)Nc2ccc(Cl)nc2C(=O)NS(C)(=O)=O)c2nc(-c3ccc4nn(C5COC5)cc4c3)n(C)c(=O)c2c1 [Compound 792, (R)-6-chloro-3-((1-(3,6-dimethyl-2-(2-(oxetan-3-yl)-2H-indazol-5-yl)-4-oxo-3,4-dihydroquinazolin-8-yl)ethyl)amino)-N-(methylsulfonyl) picolinamide]
[1]; [5]
  pIC50: > 6.60
[2]; [6]
  pIC50: 5.30 to 6.00

## Cc1cc([C@@H](C)Nc2ccc(Cl)nc2C(=O)NS(C)(=O)=O)c2nc(N3C[C@H]4C[C@@H]3CN4c3ccc(F)cn3)n(C)c(=O)c2c1 [Compound 602, 6-chloro-3-(((R)-1-(2-((1R,4R)-5-(5-fluoropyridin-2-yl)-2,5-diazabicyclo [2.2.1]heptan-2-yl)-3,6-dimethyl-4-oxo-3,4-dihydroquinazolin-8-yl)ethyl)amino)-N-(methylsulfonyl) picolinamide]
[1]; [5]
  pIC50: 6.30 to 6.60
[2]; [6]
  pIC50: ≤ 5.30

## Cc1cc([C@@H](C)Nc2ccc(Cl)nc2C(=O)NS(C)(=O)=O)c2nc(N3CCc4nn(CC5CC5)cc4C3)n(C)c(=O)c2c1 [Compound 279, (R)-6-chloro-3-((1-(2-(2-(cyclopropylmethyl)-2,4,6,7-tetrahydro-5H-pyrazolo[4,3-c]pyridin-5-yl)-3,6-dimethyl-4-oxo-3,4-dihydroquinazolin-8-yl)ethyl)amino)-N-(methylsulfonyl) picolinamide]
[1]; [3]
  pIC50: > 6.60
[2]; [4]
  pIC50: 5.30 to 6.00

## Cc1cc([C@@H](C)Nc2ccc(Cl)nc2C(=O)NS(C)(=O)=O)c2nc(N3CCC[C@@H](c4cnc(C)c(C#N)c4)C3)n(C)c(=O)c2c1 (relative stereo) [Compound 614, 6-chloro-3-(((R)-1-(2-((R*)-3-(5-cyano-6-methylpyridin-3-yl)piperidin-1-yl)-3,6-dimethyl-4-oxo-3,4-dihydroquinazolin-8-yl)ethyl)amino)-N-(methylsulfonyl) picolinamide]
[1]; [5]
  pIC50: 6.00 to 6.30
[2]; [6]
  pIC50: ≤ 5.30

## Cc1cc([C@@H](C)Nc2ccc(Cl)nc2C(=O)NS(C)(=O)=O)c2nc(N3CCN(c4ncc(F)cn4)CC3)n(C)c(=O)c2c1 [Compound 533, (R)-6-chloro-3-((1-(2-(4-(5-fluoropyrimidin-2-yl)piperazin-1-yl)-3,6-dimethyl-4-oxo-3,4-dihydroquinazolin-8-yl)ethyl)amino)-N-(methylsulfonyl) picolinamide]
[1]; [5]
  pIC50: > 6.60
[2]; [6]
  pIC50: 5.30 to 6.00

## Cc1cc([C@@H](C)Nc2ccc(Cl)nc2C(=O)NS(C)(=O)=O)c2nc(N3C[C@@H]4[C@H](C3)[C@H]4c3ccnc(C)c3F)n(C)c(=O)c2c1 [Compound 548, 6-chloro-3-(((R)-1-(2-((1R,5S,6S)-6-(3-fluoro-2-methylpyridin-4-yl)-3-azabicyclo[3.1.0]hexan-3-yl)-3,6-dimethyl-4-oxo-3,4-dihydroquinazolin-8-yl)ethyl)amino)-N-(methylsulfonyl) picolinamide]
[1]; [5]
  pIC50: 6.30 to 6.60
[2]; [6]
  pIC50: 5.30 to 6.00

## Cc1cc([C@@H](C)Nc2ccc(Cl)nc2C(=O)NS(C)(=O)=O)c2nc(N3Cc4cnn(-c5cccnc5C)c4C3)n(C)c(=O)c2c1 [Compound 252, (R)-6-chloro-3-((1-(3,6-dimethyl-2-(1-(2-methylpyridin-3-yl)-4,6-dihydropyrrolo[3,4-c]pyrazol-5(1H)-yl)-4-oxo-3,4-dihydroquinazolin-8-yl)ethyl)amino)-N-(methylsulfonyl) picolinamide]
[1]; [3]
  pIC50: > 6.60
[2]; [4]
  pIC50: 5.30 to 6.00

## Cc1cc([C@@H](C)Nc2ccc(Cl)nc2C(=O)NS(C)(=O)=O)c2nc(N3CCC(c4cc(C)no4)CC3)n(C)c(=O)c2c1 [Compound 539, (R)-6-chloro-3-((1-(3,6-dimethyl-2-(4-(3-methylisoxazol-5-yl)piperidin-1-yl)-4-oxo-3,4-dihydroquinazolin-8-yl)ethyl)amino)-N-(methylsulfonyl) picolinamide]
[1]; [5]
  pIC50: > 6.60
[2]; [6]
  pIC50: ≤ 5.30

## Cc1cc([C@@H](C)Nc2ccc(Cl)nc2C(=O)NS(C)(=O)=O)c2nc(N3CCC(c4ccn(C(F)F)n4)CC3)n(C)c(=O)c2c1 [Compound 413, (R)-6-chloro-3-((1-(2-(4-(1-(difluoromethyl)-1H-pyrazol-3-yl)piperidin-1-yl)-3,6-dimethyl-4-oxo-3,4-dihydroquinazolin-8-yl)ethyl)amino)-N-(methylsulfonyl) picolinamide]
[1]; [3]
  pIC50: > 6.60
[2]; [4]
  pIC50: 5.30 to 6.00

## Cc1cc([C@@H](C)Nc2ccc(Cl)nc2C(=O)NS(C)(=O)=O)c2nc(N3CCC(c4cc(C#N)n(C)n4)CC3)n(C)c(=O)c2c1 [Compound 357, (R)-6-chloro-3-((1-(2-(4-(5-cyano-1-methyl-1H-pyrazol-3-yl)piperidin-1-yl)-3,6-dimethyl-4-oxo-3,4-dihydroquinazolin-8-yl)ethyl)amino)-N-(methylsulfonyl) picolinamide]
[1]; [3]
  pIC50: > 6.60
[2]; [4]
  pIC50: 5.30 to 6.00

## [2H]C([2H])([2H])n1cc(F)c(C2CCN(c3nc4c([C@@H](C)Nc5ccc(Cl)nc5C(=O)NS(C)(=O)=O)cc(C)cc4c(=O)n3C)CC2)n1 [Compound 456, (R)-6-chloro-3-((1-(2-(4-(4-fluoro-1-(methyl-d3)-1H-pyrazol-3-yl)piperidin-1-yl)-3,6-dimethyl-4-oxo-3,4-dihydroquinazolin-8-yl)ethyl)amino)-N-(methylsulfonyl) picolinamide]
[1]; [5]
  pIC50: > 6.60
[2]; [6]
  pIC50: ≤ 5.30

## Cc1cc([C@@H](C)Nc2ccc(Cl)nc2C(=O)NS(C)(=O)=O)c2nc(N3Cc4cn(C5COC5)nc4C3)n(C)c(=O)c2c1 [Compound 290, (R)-6-chloro-3-((1-(3,6-dimethyl-2-(2-(oxetan-3-yl)-2,6-dihydropyrrolo[3,4-c]pyrazol-5(4H)-yl)-4-oxo-3,4-dihydroquinazolin-8-yl)ethyl)amino)-N-(methylsulfonyl) picolinamide]
[1]; [3]
  pIC50: > 6.60
[2]; [4]
  pIC50: 5.30 to 6.00

## Cc1cc([C@@H](C)Nc2ccc(Cl)nc2C(=O)NS(C)(=O)=O)c2nc(N3CCC(c4cnc(C)cn4)CC3)n(C)c(=O)c2c1 [Compound 272, (R)-6-chloro-3-((1-(3,6-dimethyl-2-(4-(5-methylpyrazin-2-yl)piperidin-1-yl)-4-oxo-3,4-dihydroquinazolin-8-yl)ethyl)amino)-N-(methylsulfonyl) picolinamide]
[1]; [3]
  pIC50: > 6.60
[2]; [4]
  pIC50: 5.30 to 6.00

## Cc1cc([C@@H](C)Nc2ccc(Cl)nc2C(=O)NS(C)(=O)=O)c2nc(N3CCN(c4ccn(C)n4)CC3)n(C)c(=O)c2c1 [Compound 187, (R)-6-chloro-3-((1-(3,6-dimethyl-2-(4-(1-methyl-1H-pyrazol-3-yl)piperazin-1-yl)-4-oxo-3,4-dihydroquinazolin-8-yl)ethyl)amino)-N-(methylsulfonyl) picolinamide]
[1]; [3]
  pIC50: > 6.60
[2]; [4]
  pIC50: 5.30 to 6.00
